These results are taken from US6395739B1, “N-phenyl-N′-phenylpopylpiperazine derivatives and process for the preparation” (Zeria Pharmaceutical Co., Ltd., priority 1998, dated 2002).

The subject of test [1] is α1-adrenoceptor. The test can be described thus: α1-adrenoceptor blocking activity, phenylephrine-induced contraction of rabbit prostate smooth muscle strips. On the set-up: species or system Rabbits. Conditions: rabbit prostate strip; vs phenylephrine concentration-response curve; test drug 10^-7-10^-5 M for 30 minutes; 10^-5 M propranolol present. As to the method: (§1) <α1-Adrenoceptor Blocking Activity>
(§2) Rabbits were exsanguinated to death, and the prostatic urethra and the prostate were removed and smooth muscle strips were prepared. Each strip was suspended in a 37° C. Krebs-solution-containing organ bath which had been bubbled with 95% O2 and 5% CO2. Isometric contraction under a resting tension of 1 g was recorded by an isometric transducer (by Nihon Koden: TB-651T) on a pen-type recorder (product of Nihon Denki San'ei: RECTI HORIZ 8K).
(§3) After the strips had been equilibrated for 60 minutes, contractions were elicited by use of a certain concentration of phenylephrine (10^−5 M). Subsequently, the organ bath was washed with a physiological solution, and the above procedure was repeated at 60-minute intervals of resting time until constant constriction responses of the strips were obtained. Next, phenylephrine was added cumulatively to organ bath(10^−7-3×10^−4 M), to thereby obtain concentration-response curves (control). After the resting period of 60 minutes following washing of the strip, test samples (DMSO solutions containing the test drug; 10^−7-10^−5 M) were treated for 30 minutes, and concentration-response curves of phenylephrine were obtained.
(§4) The composition of the physiological solution was as follows: NaCl 118.4 mM, KCl 4.7 mM, MgCl2 1.2 mM, CaCl2 2.5 mM, NaHCO3 25.0 mM, glucose […], and KH2PO4 1.2 mM.
(§5) In all cases, 10^−5 M propranolol (β-adrenoceptor antagonist) was added to the physiological solution 10 minutes before test sample was treated with strip.
(§6) The potency of each test drug with regard to the α1-adrenoceptor blocking activity was evaluated on the basis of calculation of pA2 (inverse of the logarithm of the concentration by mole of the antagonist which, in the presence of the antagonist, requires twice the concentration of the agonist for providing the same effect as required in the absence of the antagonist).

The subject of test [2] is α1-adrenoceptor. The test can be described thus: α1-adrenoceptor blocking activity, phenylephrine-induced contraction of rabbit prostatic urethra smooth muscle strips. On the set-up: species or system Rabbits. Conditions: rabbit prostatic urethra strip; vs phenylephrine concentration-response curve; test drug 10^-7-10^-5 M for 30 minutes; 10^-5 M propranolol present. As to the method:
as §1, §2, §3, §4, §5, §6

The structures appear in SMILES notation. Counter-ions that a name gives are not always drawn.

In turn, `COc1ccccc1N1CCN(CC[C@H](Oc2ccc(C#N)cc2)c2ccc(C)cc2)CC1` [Example 1, (S)-4-[3-[4-(2-methoxyphenyl)piperazin-1-yl]-1-(4-methylphenyl)propoxy]benzonitrile dihydrochloride] displayed a pA2 prostate in test [1] of 8.00. In addition, in test [2], the “pA2 Urethra” value is reported as 8.44.
Consider `COc1ccccc1N1CCN(CC[C@H](Oc2ccc(C(=O)c3c[nH]c4ccccc34)cc2)c2ccc(C)cc2)CC1.Cl` [Example 3, (S)-3-[4-[3-[4-(2-methoxyphenyl)piperazin-1-yl]-1-(4-methylphenyl)propoxy]benzoyl]indole hydrochloride], for which the pA2 prostate in test [1] is 6.89. The “pA2 Urethra” value in test [2] is 6.29.
In test [1], `COc1ccccc1N1CCN(CC[C@H](Oc2ccc(C(=O)O)cc2)c2ccc(C)cc2)CC1` [Example 2, (S)-4-[3-[4-(2-methoxyphenyl)piperazin-1-yl]-1-(4-methylphenyl)propoxy]benzoic acid] yielded a pA2 prostate of 8.67. Besides, in test [2], the “pA2 Urethra” value amounted to 8.73.
